Read-outs that look alike come from different tables or passages of the source.
How the values were obtained:
[1] = system: green rice leaf hopper (Nephotettix cincticeps); assay: Nephotettix test; format: in vivo; conditions: active compound concentration 0.1%, after 6 days; for mortality at 0.1 %: Nephotettix cincticeps, 144 h, read-out: destruction in %
Method: (§1) Solvent: 7 parts by weight of dimethylformamide
(§2) Emulsifier: 1 part by weight of alkylaryl polyglycol ether
(§3) To produce a suitable preparation of active compound, 1 part by weight of active compound is mixed with the stated amount of solvent and the stated amount of emulsifier, and the concentrate is diluted with water to the desired concentration.
Rice seedlings (Oryza sativa) are treated by being dipped into the active compound preparation of the desired concentration and are infested with the green rice leaf hopper (Nephotettix cincticeps), while the seedlings are still moist.
After the desired period of time, the destruction in % is determined. 100% means that all the leaf hoppers have been killed; 0% means that none of the leaf hoppers have been killed.

[2] = system: mustard beetle larvae (Phaedon cochleariae); assay: Phaedon larvae test; format: in vivo; conditions: active compound concentration 0.01%, after 7 days; for mortality at 0.01 %: Phaedon cochleariae, 168 h, read-out: destruction in %
Method: as §1, §2
(§4) To produce a suitable preparation of active compound, I part by weight of active compound is mixed with the stated amount of solvent and the stated amount of emulsifier, and the concentrate is diluted with water to the desired concentration.
Cabbage leaves (Brassica oleracea) are treated by being dipped into the active compound preparation of the desired concentration and are infested with mustard beetle larvae (Phaedon cochleariae), while the leaves are still moist.
After the desired period of time, the destruction in % is determined. 100% means that all the beetle larvae have been killed; 0% means that none of the beetle larvae have been killed.

[3] = system: caterpillars of the owlet moth (Spodoptera frugiperda); assay: Spodoptera frugiperda test; format: in vivo; conditions: active compound concentration 0.1%, after 7 days; for mortality at 0.1 %: Spodoptera frugiperda, 168 h, read-out: destruction in %
Method: Spodoptera frugiperda test
as §1, §2, §4
Cabbage leaves (Brassica oleracea) are treated by being dipped into the active compound preparation of the desired concentration and are infested with caterpillars of the owlet moth (Spodoptera frugiperda), while the leaves are still moist.
After the desired period of time, the destruction in % is determined. 100% means that all the caterpillars have been killed; 0% means that none of the caterpillars have been killed.

[4] = logp: n-octanol/water partition coefficient by reversed phase HPLC; format: physicochemical; conditions: h2o/ch3cn, read-out: logp (logarithm to base ten of the n-octanol/water partition coefficient)
Text: *) logp: Logarithm to base ten of the n-octanol/water partition coefficient, determined by reversed phase HPLC analysis using H2 O/CH3 CN.
*^) logp: Logarithm to base ten of the noctanol/water partition
coefficient, determined by reversed phase HPLC analysis using H2

[5] = system: common spider mite (Tetranychus urticae); assay: Tetranychus test (OP resistant/dip treatment); format: in vivo; conditions: for mortality at 0.0001 %: Tetranychus urticae, 312 h, read-out: destruction in %
Method: Tetranychus test (OP resistant/dip treatment)
Solvent: 3 parts by weight of dimethylformamide
as §2
To produce a suitable preparation of active compound, 1 part by weight of active compound is mixed with the stated amount of solvent and the stated amount of emulsifier, and the concentrate is diluted with emulsifier-containing water to the desired concentrations.
Bean plants (Phaseolus vulgaris) which are heavily infested by all stages of the common spider mite (Tetranychus urticae) are dipped into the active compound preparation of the desired concentration.
After the desired period of time, the activity in % is determined. 100% means that all the spider mites have been killed; 0% means that none of the spider mites have been killed.

[6] = system: peach aphids (Myzus persicae); assay: Myzus test; format: in vivo; conditions: active compound concentration 0.1%, after 6 days; for mortality at 0.1 %: Myzus persicae, 144 h, read-out: destruction in %
Method: as §1, §2, §3
Seedlings of the broad bean (Vicia faba) which are infested with peach aphids (Myzus persicae) are dipped into the active compound preparation of the desired concentration and placed into a plastic box.
After the desired period of time, the destruction in % is determined. 100% means that all the aphids have been killed; 0% means that none of the aphids have been killed.

[7] = system: All larval stages of Lucilia cuprina (OP resistant); assay: Fly larvae test/development-inhibitory action; format: in vivo; conditions: active compound concentration 1000 ppm, read-out: activity (larvicidal / development-inhibitory)
Method: Fly larvae test/development-inhibitory action
Test animals: All larval stages of Lucilia cuprina (OP resistant) [Pupae and adults (without contact with the active compound)]
Solvent: 35 parts by weight of ethylene glycol monomethyl ether 35 parts by weight of nonylphenol polyglycol ether
To prepare a suitable formulation, 3 parts by weight of active compound are mixed with 7 parts of the abovementioned solvent-emulsifier mixture, and the resulting emulsion concentrate is diluted with water to the concentration desired in each case.
For each concentration, 30 to 50 larvae are transferred to horse meat (1 cm^3) located in glass tubes, and 500 μl of the test dilution are pipetted onto the meat. The glass tubes are placed into plastic beakers whose bottom is covered with sea sand and kept in a controlled-environmentcabinet (26° C.±1.5° C., 70% relative humidity±10%). Larvicidal activity is checked after 24 hours and 48 hours. After the larvae have left (about 72 hours), the glass tubes are removed and perforated plastic lids are placed on the beakers. After 11/2 times the development period (hatching of the control flies), the hatched flies and the pupae/puparia are counted.
The criterion for the activity is the death of the treated larvae after 48 hours (larvicidal effect), or inhibition of adults hatching from the pupae or inhibition of pupation. […]

[8] = A isomer (possible geometric isomer)
[9] = B isomer (possible geometric isomer)

SMILES | mortality at 0.01 % [2] | mortality at 0.1 % [3] | chromatographic logP [4] | mortality at 0.0001 % [5] | also measured
CC(C)Oc1ccc(-c2ccc(C3COC(c4c(F)cccc4F)=N3)cc2)cc1 (stereo not shown) [(C)] | – | – | – | – | activity (in words) [1]: no activity
CCC(C)ON=C1CCC(c2ccc(C3COC(c4c(F)cccc4F)=N3)cc2)CC1 (stereo not shown) [Example 9] | 100% | 100% | 4.96 | 98% | –
CCCCCCCCCC1COC2(CCC(c3ccc(C4COC(c5c(F)cccc5F)=N4)cc3)CC2)O1 (stereo not shown) [Example 17] | 100% | 100% | – | 98% | mortality at 0.1 % [6]: 90%; chromatographic logP [4, 8]: 7.12; chromatographic logP [4, 9]: 7.2
COc1ccc(-c2ccc(C3COC(c4c(F)cccc4F)=N3)cc2)cc1 (stereo not shown) [(B), reference compound] | – | – | – | – | activity (in words) [2]: no activity; activity (in words) [1]: no activity; activity (in words) [3]: no activity
CC1OC2(CCC(c3ccc(C4COC(c5c(F)cccc5F)=N4)cc3)CC2)OC1C (stereo not shown) [Example 13] | 100% | – | – | 98% | mortality at 0.1 % [1]: 80%; chromatographic logP [4, 8]: 4.23; chromatographic logP [4, 9]: 4.31
Fc1cccc(F)c1C1=NC(c2ccc(C3CCC(=NOCc4ccc(C(F)(F)F)cc4Cl)CC3)cc2)CO1 (stereo not shown) [Example 20] | 100% | – | 5.91 | 98% | –
CCCCOC1(OCCCC)CCC(c2ccc(C3COC(c4c(F)cccc4F)=N3)cc2)CC1 (stereo not shown) [Example 19] | – | 100% | – | 98% | chromatographic logP [4, 8]: 6.77; chromatographic logP [4, 9]: 6.86
CC(C)(C)C1COC2(CCC(c3ccc(C4COC(c5c(F)cccc5F)=N4)cc3)CC2)O1 (stereo not shown) [Example 15] | 100% | – | – | 98% | mortality at 0.1 % [6]: 90%; chromatographic logP [4, 8]: 5.41; chromatographic logP [4, 9]: 5.48
CC(C)COc1ccc(-c2ccc(C3COC(c4c(F)cccc4F)=N3)cc2)cc1 (stereo not shown) [(D)] | – | – | – | – | activity (in words) [1]: no activity
CCON=C1CCC(c2ccc(C3COC(c4c(F)cccc4F)=N3)cc2)CC1 (stereo not shown) [Example 6] | 100% | 100% | 4 | 98% | mortality at 0.1 % [1]: 100%; inhibition at 1000 ppm [7]: 100%
CC(C)ON=C1CCC(c2ccc(C3COC(c4c(F)cccc4F)=N3)cc2)CC1 (stereo not shown) [Example 4] | 90% | 100% | 4.5 | 98% | mortality at 0.1 % [6]: 100%
CCCCCCCC1COC2(CCC(c3ccc(C4COC(c5c(F)cccc5F)=N4)cc3)CC2)O1 (stereo not shown) [Example 16] | – | – | – | 98% | mortality at 0.1 % [6]: 90%; chromatographic logP [4, 8]: 6.25; chromatographic logP [4, 9]: 6.31
Fc1cccc(F)c1C1=NC(c2ccc(C3CCC4(CC3)OCC(c3cccc(Cl)c3)O4)cc2)CO1 (stereo not shown) [Example 10] | 100% | 100% | 5.22 | 98% | –
Fc1cccc(F)c1C1=NC(c2ccc(C3CCC4(CC3)OCC(c3ccc(Cl)cc3)O4)cc2)CO1 (stereo not shown) [Example 5, 2-(2,6-difluorophenyl)-4-[4-(4-p-chlorophenylethylenedioxo-cyclohexyl)-phenyl]-1,3-oxazoline] | 100% | 100% | 5.37 | 98% | inhibition at 1000 ppm [7]: 100%
O=C1CCC(c2ccc(C3COC(c4c(F)cccc4F)=N3)cc2)CC1 (stereo not shown) [Example 1, 2-(2,6-difluorophenyl)-4-[4-(4-oxo-cyclohexyl)-phenyl]-1,3-oxazoline] | – | – | 2.28 | – | mortality at 0.1 % [1]: 90%
CCCCOc1ccc(-c2ccc(C3COC(c4c(F)cccc4F)=N3)cc2)cc1 (stereo not shown) [(E)] | – | – | – | – | activity (in words) [1]: no activity
Fc1cccc(F)c1C1=NC(c2ccc(C3CCC(=NOCc4ccc(Cl)cc4Cl)CC3)cc2)CO1 (stereo not shown) [Example 21] | – | – | 5.92 | 98% | mortality at 0.1 % [6]: 80%
Oc1ccc(-c2ccc(C3COC(c4c(F)cccc4F)=N3)cc2)cc1 (stereo not shown) [(A), reference compound] | – | – | – | – | activity (in words) [2]: no activity; activity (in words) [6]: no activity; destruction (in words) ([5]; active compound concentration 0.0001%, after 13 days): no destruction
COC1(OC)CCC(c2ccc(C3COC(c4c(F)cccc4F)=N3)cc2)CC1 (stereo not shown) [Example 8] | 90% | – | 3.8 | – | –

— patent publication US6015823A, “4-Cyclohexylphenyl-oxazolines and their use for controlling animal pests” (Bayer Aktiengesellschaft, priority 1996, dated 2000)
